Structures can show the parent of a compound that is named as a salt.
Key:
Format in all cases: biochemical
[1] = target: T1, Human Tyk2 kinase domain (Homo sapiens, UniProt P29597); test: Tyk2 Inhibition Assay (Omnia kinase fluorescence peptide substrate assay); details: averaged IC50 ranges; assay of Example A; 10 μM (Km app) or 1 mM ATP, 2 nM Tyk2
T1 construct: comprising amino acids 886 to 1187 with 10 additional histidine residues; 10xHis (histidine tag) (C, cleaved yes); made in house
T1 sequence (P29597 886-1187): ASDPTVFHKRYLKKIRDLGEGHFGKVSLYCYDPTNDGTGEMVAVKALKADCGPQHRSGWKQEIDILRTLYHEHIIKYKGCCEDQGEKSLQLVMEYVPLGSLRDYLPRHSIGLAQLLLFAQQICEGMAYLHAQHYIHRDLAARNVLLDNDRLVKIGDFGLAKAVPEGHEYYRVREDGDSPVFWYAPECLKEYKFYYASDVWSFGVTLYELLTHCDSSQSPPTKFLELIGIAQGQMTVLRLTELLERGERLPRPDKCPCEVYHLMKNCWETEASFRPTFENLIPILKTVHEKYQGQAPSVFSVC
How it was run: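 2 nM His-tag-cleaved kinase domain (aa 886–1187) with 8 μM Omnia Y12 peptide, 10 μM (Km app) or 1 mM ATP, pH 7.4 HEPES/10 mM MgCl2, 2% DMSO. Fluorescence (ex 360/em 485 nm) every 50 s for 45 min; IC50 from 4-parameter fit of POC, top dose 10 μM.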

[2] = target: T2, JAK1 (Homo sapiens, UniProt P23458); test: JAK1 Inhibition Assay (Omnia kinase fluorescence peptide substrate assay); details: averaged IC50 ranges; assay of Example B; 40 μM (Km app) or 1 mM ATP, 15 nM JAK1
T2 construct: purchased Invitrogen Corporation, Carlsbad, Calif; PV4775

[3] = target: T3, JAK2 (Homo sapiens, UniProt O60674); test: JAK2 Inhibition Assay (Omnia kinase fluorescence peptide substrate assay); details: averaged IC50 ranges; assay of Example C; 25 μM (Km app) or 1 mM ATP, 5 nM JAK2
T3 construct: purchased Invitrogen Corporation, Carlsbad, Calif; PV4288
How it was run: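 A 10-point, 3-fold compound series (top 10 μM, 2% DMSO) was tested against 5 nM JAK2 with 10 μM Omnia Y7 substrate and either 1 mM or 25 μM (Km app) ATP. Buffer: pH 7.4 HEPES, MgCl2, Triton X-100, DTT. Sox fluorescence was monitored kinetically for 45 min; IC50 is the concentration giving 50 POC on a 4-parameter fit.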

[4] = target: T4, JAK3 (Homo sapiens, UniProt P52333); test: JAK3 Inhibition Assay (Omnia kinase fluorescence peptide substrate assay); details: averaged IC50 ranges; assay of Example D; 10 μM (Km app) or 1 mM ATP, 2.5 nM JAK3
T4 construct: purchased Invitrogen Corporation, Carlsbad, Calif; PV4080
T4 sequence (P52333 1-1124): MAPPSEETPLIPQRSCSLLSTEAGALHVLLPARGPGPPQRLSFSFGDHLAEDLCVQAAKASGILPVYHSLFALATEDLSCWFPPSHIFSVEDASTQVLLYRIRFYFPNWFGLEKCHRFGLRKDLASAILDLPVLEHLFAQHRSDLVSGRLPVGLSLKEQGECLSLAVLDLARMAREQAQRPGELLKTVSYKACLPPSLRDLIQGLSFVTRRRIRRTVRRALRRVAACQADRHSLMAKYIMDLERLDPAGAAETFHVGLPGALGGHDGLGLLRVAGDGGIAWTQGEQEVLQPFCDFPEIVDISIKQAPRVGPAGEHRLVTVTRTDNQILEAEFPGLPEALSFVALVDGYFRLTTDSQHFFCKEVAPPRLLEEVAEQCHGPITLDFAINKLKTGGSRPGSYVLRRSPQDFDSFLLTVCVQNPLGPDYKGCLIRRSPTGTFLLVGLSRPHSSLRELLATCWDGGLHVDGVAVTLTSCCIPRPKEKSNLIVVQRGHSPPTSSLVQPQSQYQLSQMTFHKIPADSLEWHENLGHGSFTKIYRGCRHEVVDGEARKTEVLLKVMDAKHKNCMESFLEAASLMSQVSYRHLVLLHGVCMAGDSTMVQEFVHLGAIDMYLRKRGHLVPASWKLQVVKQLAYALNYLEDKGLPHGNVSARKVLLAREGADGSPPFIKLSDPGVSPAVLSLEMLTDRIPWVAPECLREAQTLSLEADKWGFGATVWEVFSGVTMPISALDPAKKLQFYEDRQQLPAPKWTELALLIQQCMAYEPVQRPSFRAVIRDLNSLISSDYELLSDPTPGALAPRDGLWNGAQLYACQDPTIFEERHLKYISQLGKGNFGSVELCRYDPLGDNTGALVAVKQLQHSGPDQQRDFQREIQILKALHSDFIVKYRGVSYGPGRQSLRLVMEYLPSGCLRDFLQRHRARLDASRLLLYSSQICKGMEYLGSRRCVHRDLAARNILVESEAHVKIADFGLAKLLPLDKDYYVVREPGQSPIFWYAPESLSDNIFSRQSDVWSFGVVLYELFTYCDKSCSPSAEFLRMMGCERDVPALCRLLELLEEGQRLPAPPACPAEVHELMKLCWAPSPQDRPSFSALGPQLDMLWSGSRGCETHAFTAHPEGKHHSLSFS
How it was run: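 Kinase at 2.5 nM with 10 µM Omnia Y7 peptide and 10 µM (Km app) or 1 mM ATP in 25 mM HEPES pH 7.4, 10 mM MgCl2, 1 mM DTT, 0.01% Triton X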

T2 sequence (P23458 whole entry): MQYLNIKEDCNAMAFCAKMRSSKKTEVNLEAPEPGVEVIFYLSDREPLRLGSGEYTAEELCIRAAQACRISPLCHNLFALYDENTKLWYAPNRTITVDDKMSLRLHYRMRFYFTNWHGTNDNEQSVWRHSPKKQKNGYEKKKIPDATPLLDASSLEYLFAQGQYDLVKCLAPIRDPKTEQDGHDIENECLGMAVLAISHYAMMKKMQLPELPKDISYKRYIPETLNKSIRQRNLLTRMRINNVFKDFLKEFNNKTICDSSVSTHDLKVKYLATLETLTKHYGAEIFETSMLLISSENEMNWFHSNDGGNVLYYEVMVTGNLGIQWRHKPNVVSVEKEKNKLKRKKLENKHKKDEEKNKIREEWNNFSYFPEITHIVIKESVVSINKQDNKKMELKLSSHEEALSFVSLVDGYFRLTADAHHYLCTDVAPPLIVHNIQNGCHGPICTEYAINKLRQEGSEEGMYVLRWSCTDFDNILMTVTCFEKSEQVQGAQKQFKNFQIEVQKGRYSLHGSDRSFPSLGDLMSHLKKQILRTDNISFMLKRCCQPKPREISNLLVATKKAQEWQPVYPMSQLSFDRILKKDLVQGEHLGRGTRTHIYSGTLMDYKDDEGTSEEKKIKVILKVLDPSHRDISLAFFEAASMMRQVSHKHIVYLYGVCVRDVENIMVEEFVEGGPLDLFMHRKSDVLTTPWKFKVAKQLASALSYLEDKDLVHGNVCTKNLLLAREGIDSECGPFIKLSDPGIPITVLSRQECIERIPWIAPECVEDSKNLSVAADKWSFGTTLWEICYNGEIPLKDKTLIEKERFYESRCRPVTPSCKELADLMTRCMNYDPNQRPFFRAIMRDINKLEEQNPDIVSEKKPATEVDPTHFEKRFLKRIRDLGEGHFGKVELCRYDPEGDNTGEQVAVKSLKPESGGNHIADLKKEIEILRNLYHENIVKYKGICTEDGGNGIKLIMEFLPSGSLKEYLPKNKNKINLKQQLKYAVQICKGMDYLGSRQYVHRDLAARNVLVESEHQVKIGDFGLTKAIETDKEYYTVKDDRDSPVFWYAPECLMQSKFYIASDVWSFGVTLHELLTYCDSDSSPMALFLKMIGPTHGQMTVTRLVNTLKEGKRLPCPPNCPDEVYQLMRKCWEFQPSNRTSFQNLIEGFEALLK
T3 sequence (O60674 whole entry): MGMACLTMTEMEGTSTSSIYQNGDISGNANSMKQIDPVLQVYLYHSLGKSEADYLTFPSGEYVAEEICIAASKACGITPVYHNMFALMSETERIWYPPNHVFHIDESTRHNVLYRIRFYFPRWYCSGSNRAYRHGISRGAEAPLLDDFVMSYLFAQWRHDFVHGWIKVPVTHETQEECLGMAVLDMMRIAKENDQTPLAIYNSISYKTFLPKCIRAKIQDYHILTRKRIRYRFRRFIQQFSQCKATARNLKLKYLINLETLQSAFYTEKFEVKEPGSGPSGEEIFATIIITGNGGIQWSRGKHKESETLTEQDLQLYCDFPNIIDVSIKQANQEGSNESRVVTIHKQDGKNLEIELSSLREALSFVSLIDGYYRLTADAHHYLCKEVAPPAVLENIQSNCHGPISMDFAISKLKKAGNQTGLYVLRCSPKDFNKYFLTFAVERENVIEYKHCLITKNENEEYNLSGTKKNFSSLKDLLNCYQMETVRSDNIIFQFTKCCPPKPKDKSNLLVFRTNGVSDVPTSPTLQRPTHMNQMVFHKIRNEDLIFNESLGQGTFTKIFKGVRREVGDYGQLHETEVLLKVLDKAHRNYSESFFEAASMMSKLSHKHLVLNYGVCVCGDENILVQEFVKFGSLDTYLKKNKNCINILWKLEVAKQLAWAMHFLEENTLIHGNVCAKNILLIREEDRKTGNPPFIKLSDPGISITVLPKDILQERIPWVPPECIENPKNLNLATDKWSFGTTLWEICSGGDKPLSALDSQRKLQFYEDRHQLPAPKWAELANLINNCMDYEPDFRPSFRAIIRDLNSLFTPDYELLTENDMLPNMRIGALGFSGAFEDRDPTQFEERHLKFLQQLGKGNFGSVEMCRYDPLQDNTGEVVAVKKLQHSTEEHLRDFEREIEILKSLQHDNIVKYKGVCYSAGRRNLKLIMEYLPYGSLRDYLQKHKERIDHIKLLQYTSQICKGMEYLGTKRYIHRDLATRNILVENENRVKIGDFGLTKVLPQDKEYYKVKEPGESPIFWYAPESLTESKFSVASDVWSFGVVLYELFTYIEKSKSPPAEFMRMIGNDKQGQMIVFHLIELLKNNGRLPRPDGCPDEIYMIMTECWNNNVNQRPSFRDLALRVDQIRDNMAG

IC50 [1] | IC50 [2] | IC50 [3] | IC50 [4] | SMILES
0.1 to 1 µM | 0.1 to 1 µM | > 1 µM | > 1 µM | N#CCC(C1CC1)n1cc(-c2nc(C(=O)Nc3ccccn3)cc3nccn23)cn1 (stereo not shown) [Example 125, 5-(1-(2-cyano-1-cyclopropylethyl)-1H-pyrazol-4-yl)-N-(pyridin-2-yl)imidazo[1,2-c]pyrimidine-7-carboxamide]
< 0.01 µM | 0.1 to 1 µM | 0.01 to 0.1 µM | > 1 µM | Cn1cc(-c2cc3nccn3c(-c3cnn(C4(CC#N)CN(CC5CC5)C4)c3)n2)cn1 [Example 84, 2-(1-(cyclopropylmethyl)-3-(4-(7-(1-methyl-1H-pyrazol-4-yl)imidazo[1,2-c]pyrimidin-5-yl)-1H-pyrazol-1-yl)azetidin-3-yl)acetonitrile]
< 0.01 µM | 0.1 to 1 µM | 0.01 to 0.1 µM | > 1 µM | Cn1cc(-c2cc3nccn3c(-c3ccn(C4(CC#N)CN(CC(F)(F)F)C4)n3)n2)ccc1=O [Example 145, 2-(3-(3-(7-(1-methyl-6-oxo-1,6-dihydropyridin-3-yl)imidazo[1,2-c]pyrimidin-5-yl)-1H-pyrazol-1-yl)-1-(2,2,2-trifluoroethyl)azetidin-3-yl)acetonitrile]
0.01 to 0.1 µM | 0.1 to 1 µM | 0.01 to 0.1 µM | 0.1 to 1 µM | C[Si](C)(C)CCOCn1cc(-c2cc3nccn3c(-c3cnn(C(CC#N)C4CC4)c3)n2)cn1 (stereo not shown) [Example 32, 3-cyclopropyl-3-(4-(7-(1-((2-(trimethylsilyl)ethoxy)methyl)-1H-pyrazol-4-yl)imidazo[1,2-c]pyrimidin-5-yl)-1H-pyrazol-1-yl)propanenitrile]
< 0.01 µM | 0.01 to 0.1 µM | 0.01 to 0.1 µM | 0.1 to 1 µM | Cn1cc(-c2ccc(-c3cc4nccn4c(-c4cnn(C(CC#N)C5CC5)c4)n3)cc2)cn1 (stereo not shown) [Example 60, 3-Cyclopropyl-3 (4 (7 (4 (1 methyl-1H-pyrazol-4-yl)phenyl)imidazo[1,2-c]pyrimidin-5-yl)-1H-pyrazol-1-yl)propanenitrile]
< 0.01 µM | 0.1 to 1 µM | 0.01 to 0.1 µM | > 1 µM | Cn1cc(-c2cc3nccn3c(-c3cnn(C4(CC#N)CN(CC#N)C4)c3)n2)cn1 [Example 73, 2,2′-(3-(4-(7-(1-methyl-1H-pyrazol-4-yl)imidazo[1,2-c]pyrimidin-5-yl)-1H-pyrazol-1-yl)azetidine-1,3-diyl)diacetonitrile]
0.01 to 0.1 µM | 0.1 to 1 µM | 0.1 to 1 µM | > 1 µM | CC(C)S(=O)(=O)N1CC(CC#N)(n2cc(-c3nc(-c4cnn(C)c4)cc4nccn34)cn2)C1 [Example 91, 2-(1-(Isopropylsulfonyl)-3-(4-(7-(1-methyl-1H-pyrazol-4-yl)imidazo[1,2-c]pyrimidin-5-yl)-1H-pyrazol-1-yl)azetidin-3-yl)acetonitrile]
0.1 to 1 µM | > 1 µM | > 1 µM | > 1 µM | Cc1nnc(-c2cc3nccn3c(-c3cnn(C(CC#N)C4CC4)c3)n2)s1 (stereo not shown) [Example 45, 3-Cyclopropyl-3-(4-(7-(5-methyl-1,3,4-thiadiazol-2-yl)imidazo[1,2-c]pyrimidin-5-yl)-1H-pyrazol-1-yl)propanenitrile]
< 0.01 µM | 0.01 to 0.1 µM | 0.01 to 0.1 µM | 0.1 to 1 µM | N#CCC1(n2cc(-c3nc(-c4cnn(C5CCC5)c4)cc4nccn34)cn2)CN(CC(F)(F)F)C1 [Example 103, 2-(3-(4-(7-(1-Cyclobutyl-1H-pyrazol-4-yl)imidazo[1,2-c]pyrimidin-5-yl)-1H-pyrazol-1-yl)-1-(2,2,2-trifluoroethyl)azetidin-3-yl)acetonitrile]
0.01 to 0.1 µM | 0.1 to 1 µM | 0.1 to 1 µM | > 1 µM | Cn1cc(-c2cc3nccn3c(-c3cnn(CCC#N)c3)n2)cn1 [Example 19, 3-(4-(7-(1-methyl-1H-pyrazol-4-yl)imidazo[1,2-c]pyrimidin-5-yl)-1H-pyrazol-1-yl)propanenitrile]
0.1 to 1 µM | > 1 µM | > 1 µM | > 1 µM | CCN1CCC(CC#N)(n2cc(-c3nc(-c4cnn(C)c4)cc4nccn34)cn2)CC1 [Example 29, 2-(1-ethyl-4-(4-(7-(1-methyl-1H-pyrazol-4-yl)imidazo[1,2-c]pyrimidin-5-yl)-1H-pyrazol-1-yl)piperidin-4-yl)acetonitrile]
0.1 to 1 µM | > 1 µM | > 1 µM | > 1 µM | Cn1cc(-c2cc3nccn3c(-c3cnn(C4(CC#N)CNC4)c3)n2)cn1 [Example 62, 2-(3-(4-(7-(1-Methyl-1H-pyrazol-4-yl)imidazo[1,2-c]pyrimidin-5-yl)-1H-pyrazol-1-yl)azetidin-3-yl)acetonitrile hydrochloride]
0.1 to 1 µM | > 1 µM | > 1 µM | > 1 µM | N#CCC(C1CC1)n1cc(-c2nc(C(=O)NC3CCC3)cc3nccn23)cn1 (stereo not shown) [Example 124, 5-(1-(2-Cyano-1-cyclopropylethyl)-1H-pyrazol-4-yl)-N-cyclobutylimidazo[1,2-c]pyrimidine-7-carboxamide]
< 0.01 µM | 0.1 to 1 µM | 0.01 to 0.1 µM | > 1 µM | Cn1cc(-c2cc3nccn3c(-c3cnn(C4(CC#N)CN(CC(F)F)C4)c3)n2)cn1 [Example 69, 2-(1-(2,2-dDifluoroethyl)-3-(4-(7-(1-methyl-1H-pyrazol-4-yl)imidazo[1,2-c]pyrimidin-5-yl)-1H-pyrazol-1-yl)azetidin-3-yl)acetonitrile]
< 0.01 µM | < 0.01 µM | 0.01 to 0.1 µM | 0.1 to 1 µM | COc1ccc(-c2cc3nccn3c(-c3cnn(C4(CC#N)CN(S(=O)(=O)C(F)(F)F)C4)c3)n2)cc1 [Example 158, 2-(3-(4-(7-(4-methoxyphenyl)imidazo[1,2-c]pyrimidin-5-yl)-1H-pyrazol-1-yl)-1-(trifluoromethylsulfonyl)azetidin-3-yl)acetonitrile]
< 0.01 µM | 0.1 to 1 µM | 0.01 to 0.1 µM | 0.1 to 1 µM | CN1CCN(c2ccc(-c3cc4nccn4c(-c4cnn(C(CC#N)C5CC5)c4)n3)cn2)CC1 (stereo not shown) [Example 51, 3-cyclopropyl-3-(4-(7-(6-(4-methylpiperazin-1-yl)pyridin-3-yl)imidazo[1,2-c]pyrimidin-5-yl)-1H-pyrazol-1-yl)propanenitrile]

Source: patent publication US8962596B2 (Array BioPharma Inc., priority 2010, dated 2015)
